Experimental data reported in US9061984B2 (University of Louisville Research Foundation, Inc., priority 2008, dated 2015).
Read-outs that look alike come from different tables or passages of the source.

Tested on: several cell lines (Panel/Cell Line)
Test: GI50, TGI and LC50 of compound II-21 for several cell lines (Table 12)

For `C(=N/Nc1ncnc2sc3c(c12)CCCC3)/c1ccccn1` [II-21], the GI50 (48 h, Leukemia, SR, 48-h exposure) was 0.368 µM, the GI50 (48 h, Melanoma, M14, 48-h exposure) was 0.246 µM and the GI50 (48 h, Prostate Cancer, PC-3, 48-h exposure) was 0.431 µM. For the same compound, the CC50 (48 h, read-out: LC50 (M), Leukemia, SR, 48-h exposure) was greater than 0.0001 M, the CC50 (48 h, read-out: LC50 (M), Melanoma, M14, 48-h exposure) was 3.34e-05 M and the CC50 (48 h, read-out: LC50 (M), Prostate Cancer, PC-3, 48-h exposure) was greater than 0.0001 M. The “TGI” value (Breast Cancer, BT-549, 48-h exposure) was 28.7 µM, the “TGI” value (Breast Cancer, HS 578T, 48-h exposure) was 23.9 µM and the “TGI” value (Breast Cancer, MCF7, 48-h exposure) was 15.3 µM. For the same compound, the “TGI” value (Breast Cancer, MDA-MB-231/ATCC, 48-h exposure) was 29.7 µM, the “TGI” value (Breast Cancer, MDA-MB-468, 48-h exposure) was 0.505 µM and the “TGI” value (Breast Cancer, T-47D, 48-h exposure) was 28 µM. For the same compound, the “TGI” value (CNS Cancer, SF-268, 48-h exposure) was 15.1 µM, the “TGI” value (CNS Cancer, SF-295, 48-h exposure) was 12.1 µM and the “TGI” value (CNS Cancer, SF-539, 48-h exposure) was 3.84 µM. For the same compound, the “TGI” value (CNS Cancer, SNB-19, 48-h exposure) was 34.1 µM, the “TGI” value (CNS Cancer, SNB-75, 48-h exposure) was 14.7 µM and the “TGI” value (CNS Cancer, U251, 48-h exposure) was 12.1 µM. For the same compound, the “TGI” value (Colon Cancer, COLO 205, 48-h exposure) was 14.7 µM, the “TGI” value (Colon Cancer, HCC-2998, 48-h exposure) was 22.9 µM and the “TGI” value (Colon Cancer, HCT-15, 48-h exposure) was 27 µM. The “TGI” value (Colon Cancer, HCT-116, 48-h exposure) was 14.2 µM, the “TGI” value (Colon Cancer, HT29, 48-h exposure) was 15.1 µM and the “TGI” value (Colon Cancer, KM12, 48-h exposure) was 12.7 µM. The “TGI” value (Colon Cancer, SW-620, 48-h exposure) was 17.9 µM, the GI50 (Homo sapiens, 786-0, 48 h, Renal Cancer, 786-0, 48-h exposure) was 0.333 µM and the CC50 (Homo sapiens, 786-0, 48 h, read-out: LC50 (M), Renal Cancer, 786-0, 48-h exposure) was 4.44e-05 M. For the same compound, the GI50 (Homo sapiens, A498, 48 h, Renal Cancer, A498, 48-h exposure) was 0.428 µM, the CC50 (Homo sapiens, A498, 48 h, read-out: LC50 (M), Renal Cancer, A498, 48-h exposure) was 3.72e-05 M and the GI50 (Homo sapiens, A549, 48 h, Non-Small Cell Lung Cancer, A549/ATCC, 48-h exposure) was 0.389 µM. It also gave a CC50 (Homo sapiens, A549, 48 h, read-out: LC50 (M), Non-Small Cell Lung Cancer, A549/ATCC, 48-h exposure) of 7.13e-05 M, a GI50 (Homo sapiens, ACHN, 48 h, Renal Cancer, 48-h exposure) of 0.313 µM and a CC50 (Homo sapiens, ACHN, 48 h, read-out: LC50 (M), Renal Cancer, ACHN, 48-h exposure) greater than 0.0001 M. The GI50 (Homo sapiens, BT-549, 48 h, Breast Cancer, BT-549, 48-h exposure) was 0.394 µM, the CC50 (Homo sapiens, BT-549, 48 h, read-out: LC50 (M), Breast Cancer, BT-549, 48-h exposure) was greater than 0.0001 M and the GI50 (Homo sapiens, CAKI-1, 48 h, Renal Cancer, CAKI-1, 48-h exposure) was 0.313 µM. For the same compound, the CC50 (Homo sapiens, CAKI-1, 48 h, read-out: LC50 (M), Renal Cancer, CAKI-1, 48-h exposure) was greater than 0.0001 M, the GI50 (Homo sapiens, CCRF-CEM, 48 h, Leukemia, 48-h exposure) was 0.242 µM and the CC50 (Homo sapiens, CCRF-CEM, 48 h, read-out: LC50 (M), Leukemia, CCRF-CEM, 48-h exposure) was greater than 0.0001 M. The GI50 (Homo sapiens, COLO 205, 48 h, Colon Cancer, COLO 205, 48-h exposure) was 0.315 µM, the CC50 (Homo sapiens, COLO 205, 48 h, read-out: LC50 (M), Colon Cancer, COLO 205, 48-h exposure) was 5.45e-05 M and the GI50 (Homo sapiens, DU-145, 48 h, Prostate Cancer, DU-145, 48-h exposure) was 0.41 µM. It also gave a CC50 (Homo sapiens, DU-145, 48 h, read-out: LC50 (M), Prostate Cancer, DU-145, 48-h exposure) of 5.16e-05 M, a GI50 (Homo sapiens, EKVX, 48 h, Non-Small Cell Lung Cancer, 48-h exposure) of 0.317 µM and a CC50 (Homo sapiens, EKVX, 48 h, read-out: LC50 (M), Non-Small Cell Lung Cancer, EKVX, 48-h exposure) greater than 0.0001 M. It also gave a GI50 (Homo sapiens, HCC 2998, 48 h, Colon Cancer, HCC-2998, 48-h exposure) of 10 µM, a CC50 (Homo sapiens, HCC 2998, 48 h, read-out: LC50 (M), Colon Cancer, HCC-2998, 48-h exposure) of 5.26e-05 M and a GI50 (Homo sapiens, HCT-15, 48 h, Colon Cancer, HCT-15, 48-h exposure) of 0.45 µM. It also gave a CC50 (Homo sapiens, HCT-15, 48 h, read-out: LC50 (M), Colon Cancer, HCT-15, 48-h exposure) greater than 0.0001 M, a GI50 (Homo sapiens, HCT-116, 48 h, Colon Cancer, HCT-116, 48-h exposure) of 0.166 µM and a CC50 (Homo sapiens, HCT-116, 48 h, read-out: LC50 (M), Colon Cancer, HCT-116, 48-h exposure) of 6.74e-05 M. It also gave a GI50 (Homo sapiens, HL-60, 48 h, Leukemia, HL-60(TB), 48-h exposure) of 0.12 µM, a CC50 (Homo sapiens, HL-60, 48 h, read-out: LC50 (M), Leukemia, HL-60(TB), 48-h exposure) greater than 0.0001 M and a GI50 (Homo sapiens, HOP-62, 48 h, Non-Small Cell Lung Cancer, HOP-62, 48-h exposure) of 0.395 µM. The CC50 (Homo sapiens, HOP-62, 48 h, read-out: LC50 (M), Non-Small Cell Lung Cancer, HOP-62, 48-h exposure) was greater than 0.0001 M, the GI50 (Homo sapiens, HOP-92, 48 h, Non-Small Cell Lung Cancer, HOP-92, 48-h exposure) was 0.417 µM and the CC50 (Homo sapiens, HOP-92, 48 h, read-out: LC50 (M), Non-Small Cell Lung Cancer, HOP-92, 48-h exposure) was greater than 0.0001 M. For the same compound, the GI50 (Homo sapiens, HT-29, 48 h, Colon Cancer, HT29, 48-h exposure) was 0.18 µM, the CC50 (Homo sapiens, HT-29, 48 h, read-out: LC50 (M), Colon Cancer, HT29, 48-h exposure) was 4.49e-05 M and the GI50 (Homo sapiens, Hs-578T, 48 h, Breast Cancer, HS 578T, 48-h exposure) was 0.748 µM. The CC50 (Homo sapiens, Hs-578T, 48 h, read-out: LC50 (M), Breast Cancer, HS 578T, 48-h exposure) was greater than 0.0001 M, the GI50 (Homo sapiens, IGROV-1, 48 h, Ovarian Cancer, IGROV1, 48-h exposure) was 0.45 µM and the CC50 (Homo sapiens, IGROV-1, 48 h, read-out: LC50 (M), Ovarian Cancer, IGROV1, 48-h exposure) was greater than 0.0001 M. For the same compound, the GI50 (Homo sapiens, K562, 48 h, Leukemia, K-562, 48-h exposure) was 0.284 µM, the CC50 (Homo sapiens, K562, 48 h, read-out: LC50 (M), Leukemia, K-562, 48-h exposure) was greater than 0.0001 M and the GI50 (Homo sapiens, KM12, 48 h, Colon Cancer, KM12, 48-h exposure) was 0.515 µM. The CC50 (Homo sapiens, KM12, 48 h, read-out: LC50 (M), Colon Cancer, KM12, 48-h exposure) was 3.81e-05 M, the GI50 (Homo sapiens, LOX IMVI, 48 h, Melanoma, 48-h exposure) was 0.256 µM and the CC50 (Homo sapiens, LOX IMVI, 48 h, read-out: LC50 (M), Melanoma, LOX IMVI, 48-h exposure) was 3.48e-05 M. The GI50 (Homo sapiens, MCF7, 48 h, Breast Cancer, MCF7, 48-h exposure) was 0.336 µM, the CC50 (Homo sapiens, MCF7, 48 h, read-out: LC50 (M), Breast Cancer, MCF7, 48-h exposure) was 8e-05 M and the GI50 (Homo sapiens, MDA-MB-231, 48 h, Breast Cancer, MDA-MB-231/ATCC, 48-h exposure) was 0.603 µM. The CC50 (Homo sapiens, MDA-MB-231, 48 h, read-out: LC50 (M), Breast Cancer, MDA-MB-231/ATCC, 48-h exposure) was greater than 0.0001 M, the GI50 (Homo sapiens, MDA-MB-435, 48 h, Melanoma, MDA-MB-435, 48-h exposure) was 0.477 µM and the CC50 (Homo sapiens, MDA-MB-435, 48 h, read-out: LC50 (M), Melanoma, MDA-MB-435, 48-h exposure) was greater than 0.0001 M. It also gave a GI50 (Homo sapiens, MDA-MB-468, 48 h, Breast Cancer, MDA-MB-468, 48-h exposure) of 0.2 µM, a CC50 (Homo sapiens, MDA-MB-468, 48 h, read-out: LC50 (M), Breast Cancer, MDA-MB-468, 48-h exposure) of 4.1e-05 M and a GI50 (Homo sapiens, MOLT-4, 48 h, Leukemia, MOLT-4, 48-h exposure) of 0.261 µM. The CC50 (Homo sapiens, MOLT-4, 48 h, read-out: LC50 (M), Leukemia, MOLT-4, 48-h exposure) was greater than 0.0001 M, the GI50 (Homo sapiens, Malme-3M, 48 h, Melanoma, 48-h exposure) was 0.275 µM and the CC50 (Homo sapiens, Malme-3M, 48 h, read-out: LC50 (M), Melanoma, MALME-3M, 48-h exposure) was 5.14e-05 M. The GI50 (Homo sapiens, NCI-H23, 48 h, Non-Small Cell Lung Cancer, NCI-H23, 48-h exposure) was 0.705 µM, the CC50 (Homo sapiens, NCI-H23, 48 h, read-out: LC50 (M), Non-Small Cell Lung Cancer, NCI-H23, 48-h exposure) was greater than 0.0001 M and the GI50 (Homo sapiens, NCI-H226, 48 h, Non-Small Cell Lung Cancer, NCI-H226, 48-h exposure) was 0.385 µM. It also gave a CC50 (Homo sapiens, NCI-H226, 48 h, read-out: LC50 (M), Non-Small Cell Lung Cancer, NCI-H226, 48-h exposure) greater than 0.0001 M, a GI50 (Homo sapiens, NCI-H322M, 48 h) of 0.216 µM and a CC50 (Homo sapiens, NCI-H322M, 48 h, read-out: LC50 (M)) greater than 0.0001 M. It also gave a GI50 (Homo sapiens, NCI-H460, 48 h, Non-Small Cell Lung Cancer, NCI-H460, 48-h exposure) of 0.304 µM and a CC50 (Homo sapiens, NCI-H460, 48 h, read-out: LC50 (M), Non-Small Cell Lung Cancer, NCI-H460, 48-h exposure) of 3.11e-05 M.
